test system: SLA-2*04:01; assay: Peptide-MHC class I complex stability, scintillation proximity assay (SPA); design: species or system pig; conditions: biotinylated recombinant SLA heavy chain, 125I-β2m, excess unlabeled β2m, read every 40 min, number only if t1/2 ≥ 0.5 h, '-' = not stably binding
Protocol: (§1) The stability of the selected 198 peptides in complex with relevant SLA class I molecules and β2m was determined using a scintillation proximity assay (SPA), as previously described (Harndahl et al., [2011]). Briefly, biotinylated recombinant MHC class I heavy chains were attached to a streptavidin-coated scintillation microplate together with iodinated (^125I) β2m and candidate peptide resulting in a scintillation signal, which was consecutively measured every 40 min by a scintillation plate counter. The duration of this signal is directly correlated to the stability of the peptide-MHC class I-β2m complex under dissociating conditions and in the presence of excess unlabeled β2m (Harndahl et al., [2011]). Peptides with a half-life ≥ 0.5 h were selected as stable binders.

| Substance | Binder (t1/2 ≥ 0.5 h): half-life of peptide-SLA-2*04:01 complex |
| --- | --- |
| EKLGLPPILVY [IDO17, porcine IDO-derived 9-11mer peptide] | - (t1/2 (hours) is listed for each of the stably binding peptides (t1/2 ≥ 0.5 h)) |
| LSEGLLYEGVW [IDO71, porcine IDO-derived 9-11mer peptide] | 4.4 h |
| DNSWKIFEEY [IDO11, porcine IDO-derived 9-11mer peptide] | - (t1/2 (hours) is listed for each of the stably binding peptides (t1/2 ≥ 0.5 h)) |
| FNAIQCEDL [IDO26, porcine IDO-derived 9-11mer peptide] | 0.6 h |
| ENYIADIEVD [RhoC19, porcine RhoC-derived 9-11mer peptide] | - (t1/2 (hours) is listed for each of the stably binding peptides (t1/2 ≥ 0.5 h)) |
| LGYITMAYVW [IDO66, porcine IDO-derived 9-11mer peptide] | 4.9 h |
| FNVLRIYLSGW [IDO29, porcine IDO-derived 9-11mer peptide] | 33.6 h |
| FALPNPLEEL [IDO22, porcine IDO-derived 9-11mer peptide] | 0.5 h |
| LDWWSPMDNSW [IDO64, porcine IDO-derived 9-11mer peptide] | - (t1/2 (hours) is listed for each of the stably binding peptides (t1/2 ≥ 0.5 h)) |
| WWSPMDNSW [IDO132, porcine IDO-derived 9-11mer peptide] | - (t1/2 (hours) is listed for each of the stably binding peptides (t1/2 ≥ 0.5 h)) |
| NYHLQIVTKY [IDO93, porcine IDO-derived 9-11mer peptide] | - (t1/2 (hours) is listed for each of the stably binding peptides (t1/2 ≥ 0.5 h)) |
| DSLENIPEKW [RhoC9, porcine RhoC-derived 9-11mer peptide] | - (t1/2 (hours) is listed for each of the stably binding peptides (t1/2 ≥ 0.5 h)) |
| NSWKIFEEYH [IDO90, porcine IDO-derived 9-11mer peptide] | - (t1/2 (hours) is listed for each of the stably binding peptides (t1/2 ≥ 0.5 h)) |
| WDTAGQEDY [RhoC55, porcine RhoC-derived 9-11mer peptide] | - (t1/2 (hours) is listed for each of the stably binding peptides (t1/2 ≥ 0.5 h)) |
| SSLHKALEVF [IDO121, porcine IDO-derived 9-11mer peptide] | - (t1/2 (hours) is listed for each of the stably binding peptides (t1/2 ≥ 0.5 h)) |
| VFSKDQFPEVY [RhoC53, porcine RhoC-derived 9-11mer peptide] | - (t1/2 (hours) is listed for each of the stably binding peptides (t1/2 ≥ 0.5 h)) |
| VDGKQVELALW [RhoC52, porcine RhoC-derived 9-11mer peptide] | 0.5 h |
| AGFLQEMRTY [IDO1, porcine IDO-derived 9-11mer peptide] | 0.6 h |
| MDNSWKIFEEY [IDO76, porcine IDO-derived 9-11mer peptide] | 1.9 h |
| FSKDQFPEVY [RhoC26, porcine RhoC-derived 9-11mer peptide] | - (t1/2 (hours) is listed for each of the stably binding peptides (t1/2 ≥ 0.5 h)) |
| LVYADCVLANW [IDO74, porcine IDO-derived 9-11mer peptide] | - (t1/2 (hours) is listed for each of the stably binding peptides (t1/2 ≥ 0.5 h)) |
| TYMPPAHRNF [IDO124, porcine IDO-derived 9-11mer peptide] | 4.7 h |
| DWWSPMDNSW [IDO13, porcine IDO-derived 9-11mer peptide] | - (t1/2 (hours) is listed for each of the stably binding peptides (t1/2 ≥ 0.5 h)) |

test system: SLA-3*04:01; assay: as above; design: species or system pig; conditions: biotinylated recombinant SLA heavy chain, 125I-β2m, excess unlabeled β2m, read every 40 min, number only if t1/2 ≥ 0.5 h, '-' = not stably binding
Protocol: as §1

| Substance | Binder (t1/2 ≥ 0.5 h): half-life of peptide-SLA-3*04:01 complex |
| --- | --- |
| YDRLRPLSYPD [RhoC57, porcine RhoC-derived 9-11mer peptide] | - (t1/2 (hours) is listed for each of the stably binding peptides (t1/2 ≥ 0.5 h)) |
| YDRLRPLSY [RhoC56, porcine RhoC-derived 9-11mer peptide] | - (t1/2 (hours) is listed for each of the stably binding peptides (t1/2 ≥ 0.5 h)) |
| NKRRRGCPI [RhoC41, porcine RhoC-derived 9-11mer peptide] | - (t1/2 (hours) is listed for each of the stably binding peptides (t1/2 ≥ 0.5 h)) |
| KRRRGCPIL [RhoC33, porcine RhoC-derived 9-11mer peptide] | - (t1/2 (hours) is listed for each of the stably binding peptides (t1/2 ≥ 0.5 h)) |
| RNFLHSLESG [IDO106, porcine IDO-derived 9-11mer peptide] | 0.5 h |
| ANRISAFGYL [RhoC3, porcine RhoC-derived 9-11mer peptide] | - (t1/2 (hours) is listed for each of the stably binding peptides (t1/2 ≥ 0.5 h)) |
| FNVLRIYLSG [IDO28, porcine IDO-derived 9-11mer peptide] | - (t1/2 (hours) is listed for each of the stably binding peptides (t1/2 ≥ 0.5 h)) |
| RNIAIPYCKLS [IDO109, porcine IDO-derived 9-11mer peptide] | - (t1/2 (hours) is listed for each of the stably binding peptides (t1/2 ≥ 0.5 h)) |
| KLFFNVLRIYL [IDO54, porcine IDO-derived 9-11mer peptide] | - (t1/2 (hours) is listed for each of the stably binding peptides (t1/2 ≥ 0.5 h)) |
| KNMDILFSFPG [IDO59, porcine IDO-derived 9-11mer peptide] | - (t1/2 (hours) is listed for each of the stably binding peptides (t1/2 ≥ 0.5 h)) |
| KHFCPNVPIIL [RhoC30, porcine RhoC-derived 9-11mer peptide] | - (t1/2 (hours) is listed for each of the stably binding peptides (t1/2 ≥ 0.5 h)) |
| RLRPLSYPD [RhoC45, porcine RhoC-derived 9-11mer peptide] | - (t1/2 (hours) is listed for each of the stably binding peptides (t1/2 ≥ 0.5 h)) |
| KTKEGVREVF [RhoC34, porcine RhoC-derived 9-11mer peptide] | - (t1/2 (hours) is listed for each of the stably binding peptides (t1/2 ≥ 0.5 h)) |
| HKMQRLAHLVL [IDO37, porcine IDO-derived 9-11mer peptide] | - (t1/2 (hours) is listed for each of the stably binding peptides (t1/2 ≥ 0.5 h)) |
| KNKRRRGCPIL [RhoC32, porcine RhoC-derived 9-11mer peptide] | - (t1/2 (hours) is listed for each of the stably binding peptides (t1/2 ≥ 0.5 h)) |
| QEMRTYMPP [IDO101, porcine IDO-derived 9-11mer peptide] | - (t1/2 (hours) is listed for each of the stably binding peptides (t1/2 ≥ 0.5 h)) |
| KMQRLAHLVL [IDO57, porcine IDO-derived 9-11mer peptide] | - (t1/2 (hours) is listed for each of the stably binding peptides (t1/2 ≥ 0.5 h)) |
| RKNKRRRGCPI [RhoC44, porcine RhoC-derived 9-11mer peptide] | - (t1/2 (hours) is listed for each of the stably binding peptides (t1/2 ≥ 0.5 h)) |
| FNVLRIYLS [IDO27, porcine IDO-derived 9-11mer peptide] | - (t1/2 (hours) is listed for each of the stably binding peptides (t1/2 ≥ 0.5 h)) |
| ANWKKKDPS [IDO6, porcine IDO-derived 9-11mer peptide] | - (t1/2 (hours) is listed for each of the stably binding peptides (t1/2 ≥ 0.5 h)) |
| KTVRGTTVRSL [IDO60, porcine IDO-derived 9-11mer peptide] | - (t1/2 (hours) is listed for each of the stably binding peptides (t1/2 ≥ 0.5 h)) |
| KALLDITSSL [IDO46, porcine IDO-derived 9-11mer peptide] | - (t1/2 (hours) is listed for each of the stably binding peptides (t1/2 ≥ 0.5 h)) |
| KHFCPNVPII [RhoC29, porcine RhoC-derived 9-11mer peptide] | - (t1/2 (hours) is listed for each of the stably binding peptides (t1/2 ≥ 0.5 h)) |
| MQRLAHLVL [IDO78, porcine IDO-derived 9-11mer peptide] | - (t1/2 (hours) is listed for each of the stably binding peptides (t1/2 ≥ 0.5 h)) |
| RNIAIPYCKL [IDO108, porcine IDO-derived 9-11mer peptide] | - (t1/2 (hours) is listed for each of the stably binding peptides (t1/2 ≥ 0.5 h)) |

test system: PBMCs; assay: In vitro peptide stimulation of porcine PBMCs, IFN-γ release assay (ELISA); assay type: cell-based, pig; design: key to T cell response: “x” indicates that a response was found to this given peptide at least once; conditions: not given

| Substance | IFN-γ in positive control cultures |
| --- | --- |
| Staphylococcal Enterotoxin B [SEB, reference compound] | > 70 pg/mL |

same assay, conditions: PBMCs of immunized pigs, 2 × 10^5/well, 5 μg/ml peptide, 67.5–70.0 h, IFN-γ ELISA; response = 2-fold increase vs day -2 and at least 25 pg/ml IFN-γ, found at least once; SLA restriction not included

| Substance | T cell response |
| --- | --- |
| LSEGLLYEGVW [IDO71, porcine IDO-derived 9-11mer peptide] | x |
| FNAIQCEDL [IDO26, porcine IDO-derived 9-11mer peptide] | x |
| LGYITMAYVW [IDO66, porcine IDO-derived 9-11mer peptide] | x |
| FNVLRIYLSGW [IDO29, porcine IDO-derived 9-11mer peptide] | x |
| FALPNPLEEL [IDO22, porcine IDO-derived 9-11mer peptide] | x |
| VDGKQVELALW [RhoC52, porcine RhoC-derived 9-11mer peptide] | x |
| AGFLQEMRTY [IDO1, porcine IDO-derived 9-11mer peptide] | x |
| MDNSWKIFEEY [IDO76, porcine IDO-derived 9-11mer peptide] | x |
| TYMPPAHRNF [IDO124, porcine IDO-derived 9-11mer peptide] | x |
